For assay [1], the target named is T1, Adenosine receptor A1 (Homo sapiens, UniProt P30542).
T1 sequence (P30542 whole entry): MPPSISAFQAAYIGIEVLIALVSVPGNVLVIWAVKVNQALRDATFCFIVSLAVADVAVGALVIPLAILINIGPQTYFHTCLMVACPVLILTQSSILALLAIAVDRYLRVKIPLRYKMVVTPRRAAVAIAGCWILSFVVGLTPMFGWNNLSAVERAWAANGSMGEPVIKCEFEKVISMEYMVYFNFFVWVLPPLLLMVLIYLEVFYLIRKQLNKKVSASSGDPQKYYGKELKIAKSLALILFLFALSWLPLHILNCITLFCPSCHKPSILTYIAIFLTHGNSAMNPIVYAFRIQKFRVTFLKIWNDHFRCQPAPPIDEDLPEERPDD
Briefly: Displacement of [3H]DPCPX from human adenosine A1 receptor expressed in CHO cells. The format is cell-based. (Loss of bound radioactivity is the signal in a displacement assay; it reports binding, not function.)

In assay [2] the target is T2, Adenosine receptor A2a (Homo sapiens, UniProt P29274). Briefly: Displacement of [3H]NECA from human adenosine A2A receptor expressed in CHO cells at 10 uM. It counts as cell-based.
Assay [3] deals with T3, Adenosine receptor A3 (Homo sapiens, UniProt P0DMS8).
T3 sequence (P0DMS8 whole entry): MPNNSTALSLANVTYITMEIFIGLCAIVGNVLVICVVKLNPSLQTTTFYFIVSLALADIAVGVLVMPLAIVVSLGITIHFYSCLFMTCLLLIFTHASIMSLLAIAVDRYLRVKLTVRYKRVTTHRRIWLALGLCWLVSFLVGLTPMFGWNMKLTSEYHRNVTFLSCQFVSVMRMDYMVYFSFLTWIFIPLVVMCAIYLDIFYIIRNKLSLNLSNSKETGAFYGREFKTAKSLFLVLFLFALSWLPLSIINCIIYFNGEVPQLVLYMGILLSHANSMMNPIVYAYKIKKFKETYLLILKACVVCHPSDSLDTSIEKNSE
In words: Displacement of [125I]AB-MECA from human adenosine A3 receptor expressed in CHO cells. The format is cell-based.

The target of assay [4] is T4, Adenosine receptor A2b (Homo sapiens) (UniProt P29275).
T4 sequence (whole entry): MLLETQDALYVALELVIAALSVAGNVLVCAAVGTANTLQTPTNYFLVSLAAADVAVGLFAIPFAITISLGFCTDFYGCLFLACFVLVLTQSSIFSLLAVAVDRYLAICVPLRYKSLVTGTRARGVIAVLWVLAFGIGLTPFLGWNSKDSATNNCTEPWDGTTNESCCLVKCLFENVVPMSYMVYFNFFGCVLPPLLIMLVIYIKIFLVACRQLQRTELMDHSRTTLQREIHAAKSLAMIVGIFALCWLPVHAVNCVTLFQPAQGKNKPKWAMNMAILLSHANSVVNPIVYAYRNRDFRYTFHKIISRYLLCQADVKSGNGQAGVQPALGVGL
In words: Agonist activity at human recombinant adenosine A2B receptor expressed in CHO cells assessed as cAMP accumulation at 10 uM after 15 mins by liquid scintillation counting analysis. It counts as functional, cell-based. A general note: cAMP levels reflect the balance of adenylyl cyclase and phosphodiesterase activity.

Assay [5] addresses T5, Adenosine receptor A1 (Homo sapiens) (UniProt P30542).
T5 sequence (whole entry): T1 sequence (P30542 whole entry)
Briefly: Displacement of [3H]DPCPX from human adenosine A1 receptor expressed in CHO cells at 10 uM. It counts as cell-based.

Assay [6] concerns the target T4, Adenosine receptor A2b (Homo sapiens). Briefly: Antagonist activity at human recombinant adenosine A2B receptor expressed in CHO cells assessed as inhibition of NECA-induced cAMP accumulation measured as cAMP level at 10 uM incubated for 15 mins prior to NECA challenge measured after 30 mins by liquid scintillation counting analysis relative to control. The format is functional, cell-based. Details: scale not given: the % may be the effect or the level left.

Assay [7] concerns the target T6, Adenosine receptor A3 (Homo sapiens) (UniProt P0DMS8).
T6 sequence (whole entry): T3 sequence (P0DMS8 whole entry)
In words: Displacement of [125I]AB-MECA from human adenosine A3 receptor expressed in CHO cells at 1 uM. It counts as cell-based.

Assay [8] deals with T2, Adenosine receptor A2a. Briefly: Displacement of [3H]NECA from human adenosine A2A receptor expressed in CHO cells. It counts as cell-based.

Molecules are shown by their SMILES. Activity calls are given as the source filed them. The rule behind the calls is not given here.

T2 sequence (P29274 whole entry): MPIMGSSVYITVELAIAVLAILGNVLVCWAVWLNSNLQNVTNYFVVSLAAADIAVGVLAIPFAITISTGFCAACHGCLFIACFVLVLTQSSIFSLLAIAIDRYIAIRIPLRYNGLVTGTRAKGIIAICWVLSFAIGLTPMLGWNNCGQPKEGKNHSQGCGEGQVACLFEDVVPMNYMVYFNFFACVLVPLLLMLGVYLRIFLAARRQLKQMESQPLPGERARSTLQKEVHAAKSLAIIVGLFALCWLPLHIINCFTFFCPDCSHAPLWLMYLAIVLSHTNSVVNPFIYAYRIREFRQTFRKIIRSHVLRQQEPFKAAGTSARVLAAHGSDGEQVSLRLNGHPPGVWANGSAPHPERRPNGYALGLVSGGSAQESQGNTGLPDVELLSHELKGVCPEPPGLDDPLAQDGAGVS

In the case of `Clc1ccc2ncc3nc(-c4ccccc4)nn3c2c1`, the Ki (commonly the equilibrium dissociation constant of an inhibitor or competing ligand from its target) turned out to be 127 nM in assay [1] and 15.2 nM in assay [3]. In assay [2], the inhibition – broadly, the share of the control response that was lost under treatment – was 19%.
With `C#CCOC(=O)N1Cc2nc(-c3ccc(OC)cc3)nn2-c2cc(C)ccc21`, in assay [4], the outcome was inactive. In addition, the inhibition in assay [5] worked out at 49%; in assay [2], 13%. Further, in assay [6], the Activity was determined as 109%. The same compound came in with an inhibitory constant (Ki) in assay [3] of 23.3 nM.
Take `COc1ccc(-c2nc(NC(=O)Nc3ccccc3)n(-c3ccccc3)n2)cc1`: the inhibition was found to be 1% in assay [5] and 7% in assay [2]. In assay [3], this compound came in with an inhibition constant (Ki) of 545 nM.
For the compound `COc1ccc(-c2nc(N(C(=O)c3ccccc3)C(=O)c3ccccc3)n(-c3ccccc3)n2)cc1`, the inhibition in assay [5] was determined as 55%; in assay [2] it was 13%; in assay [7] it was 44%.
Consider `COc1ccc(-c2nc3cnc4ccc(C)cc4n3n2)cc1`, for which the outcome in assay [4] was inactive. For the same compound, in assay [6], the Activity is 42.6%. Moreover, the results for the inhibitory constant (Ki) in assay [1] and in assay [3] were 2020 nM and 26.6 nM, respectively. The compound also showed an inhibition in assay [2] of 30%.
Turning to `Cc1ccc2ncc3nc(-c4ccccc4)nn3c2c1`, the figures for the Ki in assay [8], in assay [1] and in assay [3] were 2400 nM, 1320 nM and 23.9 nM, respectively.
Turning to `C#CCOC(=O)Nc1ccc(C)cc1-n1cnc(-c2ccc(OC)cc2)n1`, the inhibition in assay [2] came out at 16%; in assay [7], 35%.
On to `COc1ccc(-c2ncn(-c3cc(C)ccc3NC(=O)OCc3ccccc3)n2)cc1`, for which the inhibition in assay [5] worked out at 2%; in assay [2], 7%; in assay [7], 47%.
With `COC(=O)N1Cc2nc(-c3ccccc3)nn2-c2ccccc21`, the inhibition was 34% in assay [5] and 50% in assay [2]. This compound returned a Ki in assay [3] of 245 nM.
For `CCOC(=O)N1Cc2nc(-c3ccccc3)nn2-c2cc(C)ccc21`, the result in assay [4] was inactive. Also, the Activity in assay [6] turned out to be 104%. Besides, the inhibition constant Ki in assay [1] is 556 nM; in assay [3], 12.5 nM. Also, the inhibition in assay [2] came to 9%.
As to `CCC(=O)N1Cc2nc(-c3ccccc3)nn2-c2cc(C)ccc21`, in assay [4], the outcome was inactive. Further, in assay [6], the Activity amounted to 68.6%. The Ki in assay [1] turned out to be 134 nM; in assay [3], 6.5 nM. In assay [2], the inhibition worked out at 33%.
Turning to `COC(=O)N1Cc2nc(-c3ccccc3)nn2-c2cc(C)ccc21`, in assay [4], the result was inactive. Further, the Activity in assay [6] is 74.9%. The values for the inhibition constant (Ki) in assay [1] and in assay [3] were 1480 nM and 31.9 nM, respectively. In assay [2], this compound displayed an inhibition of 32%.
Take `COc1ccc(-c2nc3n(n2)-c2cc(C)ccc2N(C(=O)OCc2ccccc2)C3)cc1`: the figures for the inhibition in assay [5] and in assay [2] were 45% and 4%, respectively. This compound also showed an inhibition constant Ki in assay [3] of 231 nM.
`CCOC(=O)N1Cc2nc(-c3ccccc3)nn2-c2cc(Cl)ccc21` displayed a Ki in assay [3] of 166 nM.
For `CCOC(=O)Nc1ccc(C)cc1-n1cnc(-c2ccc(OC)cc2)n1`, the inhibition in assay [5] came to 6%; in assay [2], 13%; in assay [7] it was 34%.
Taken in the same sequence, the figures for `COc1ccc(-c2nc(NC(=O)c3ccccc3)n(-c3ccccc3)n2)cc1` were 25%, 43% and 50%.
Turning to `CCOC(=O)N1Cc2nc(-c3ccccc3)nn2-c2ccccc21`, the affinity in assay [1] corresponds to a Ki of 4600 nM. Also, the inhibition turned out to be 33% in assay [2] and 22% in assay [7].
With `COc1ccc(-c2ncn(-c3cc(C)ccc3NC(=O)Cc3ccccc3)n2)cc1`, the figures for the inhibition in assay [5], in assay [2] and in assay [7] were 44%, 1% and 45%, respectively.
On to `CCC(=O)N1Cc2nc(-c3ccccc3)nn2-c2cc(Cl)ccc21`, for which the result in assay [4] was inactive. Besides, the figures for the inhibition in assay [5] and in assay [2] were 39% and 24%, respectively. For the same compound, the Activity in assay [6] was 63.7%. Further, the inhibition constant Ki in assay [3] stood at 72 nM.
Take `CCC(=O)N1Cc2nc(-c3ccccc3)nn2-c2ccccc21`: affinity in assay [1] was put at a Ki of 1360 nM. The inhibition in assay [2] came out at 52%; in assay [7], 55%.
In the case of `CCC(=O)N1Cc2nc(-c3ccc(OC)cc3)nn2-c2cc(C)ccc21`, the outcome in assay [4] was inactive. Moreover, in assay [6], the Activity came to 102%. The inhibitory constant (Ki) in assay [1] was 1540 nM; in assay [3], 25.1 nM. Besides, the inhibition in assay [2] came to 6%.
With `COc1ccc(-c2nc3n(n2)-c2cc(C)ccc2N(C(=O)Cc2ccccc2)C3)cc1`, the result in assay [4] was inactive. Further, the inhibition in assay [5] is 39%; in assay [2], 0%. In addition, in assay [6], the Activity came out at 89.5%. This compound also had an inhibition constant Ki in assay [3] of 54.8 nM.
In the case of `c1ccc(-c2nc3cnc4ccccc4n3n2)cc1`, the affinity in assay [3], expressed as Ki, was 91.5 nM.
For `CCOC(=O)N1Cc2nc(-c3ccc(OC)cc3)nn2-c2cc(C)ccc21`, the values for the inhibitory constant (Ki) in assay [1] and in assay [3] were 86 nM and 39.4 nM, respectively. In assay [2], this compound returned an inhibition of 2%.
For the compound `CCCOC(=O)N1Cc2nc(-c3ccccc3)nn2-c2cc(C)ccc21`, the values for the inhibition constant (Ki) in assay [1] and in assay [3] were 565 nM and 171 nM, respectively. This compound came in with an inhibition in assay [2] of 56%.
With `COc1ccc(-c2nc(N(C(C)=O)C(C)=O)n(-c3ccccc3)n2)cc1`, the inhibition in assay [5] was determined as 26%; in assay [2] it was 4%; in assay [7], 19%.

The values above are taken from ChEMBL document CHEMBL3352157, “1,2,4-triazolo[1,5-a]quinoxaline derivatives and their simplified analogues as adenosine A₃ receptor antagonists. Synthesis, structure-affinity relationships and molecular modeling studies” (Bioorg Med Chem, 2015).
